Assay results published in US11555035B2, “Heterocyclic compound and harmful arthropod-controlling agent containing same” (SUMITOMO CHEMICAL COMPANY, LIMITED, priority 2017, dated 2023).

Tested on: German cockroaches (Blattella germanica)
Test: Test method 9: treated filter paper with sucrose, German cockroaches
Format: in vivo
Conditions: 500 ppm, 0.7 mL on filter paper, male adults, after 6 days
Protocol: Next, Test Examples are used to show effects of the Present compounds on harmful arthropods. In the following Test Examples, the tests were carried out at 25° C.
Each test compound is formulated according to the process described in the Formulation Example 5 to obtain each formulation, and water is added thereto to prepare a diluted solution containing a prescribed concentration of each test compound.
A filter paper having a diameter of 5.5 cm is lined with the inside bottom of a cup having a diameter of 5.5 cm, each of said diluted solutions (0.7 mL) is added dropwise on the filter paper, and sucrose (30 mg) is homogeneously placed into said cup as a feed. Two(2) male adult German cockroaches (Blattella germanica) are released into said cup, and the cup is covered. After 6 days, life and death of the German cockroach are examined, the number of the dead insects is counted, and the mortality of insects is calculated by the following equation. Mortality(%)=(Number of dead insects/Number of test insects)×100

Row | Compound | mortality [%]
1 | CCS(=O)(=O)c1cc(-c2ncc(C#N)cn2)cnc1-c1nc2cc(C(F)(F)F)cnc2n1C [compound 2] | 100
2 | CCS(=O)(=O)c1cc(-c2ncc(C#N)cn2)c(N)nc1-c1nc2cc(C(F)(F)F)cnc2n1C [compound 7] | 100
